For test [1], the target named is T1, SAPK3 (GST-SAPK3) (Rattus norvegicus, UniProt Q63538).
T1 construct: made in house; host or cells: E. coli BL21 (DE3)
T1 sequence (Q63538 1-367): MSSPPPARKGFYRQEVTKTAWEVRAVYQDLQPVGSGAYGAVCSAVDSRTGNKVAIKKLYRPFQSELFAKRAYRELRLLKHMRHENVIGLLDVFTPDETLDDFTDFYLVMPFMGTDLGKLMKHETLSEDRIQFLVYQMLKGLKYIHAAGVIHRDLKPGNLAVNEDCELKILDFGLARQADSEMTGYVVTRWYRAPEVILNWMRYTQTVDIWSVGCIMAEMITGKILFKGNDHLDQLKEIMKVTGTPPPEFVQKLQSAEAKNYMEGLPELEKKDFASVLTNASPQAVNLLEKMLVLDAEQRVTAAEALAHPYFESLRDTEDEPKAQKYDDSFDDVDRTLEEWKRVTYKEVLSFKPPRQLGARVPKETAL
Description: Effect of SB 203580 on SKK3-activated SAPK3 (FIG. 19). In kind it is biochemical. The conditions noted are these: even at a concentration of 0.1 mM; activated in vitro with purified SKK3. As for the experimental part: (§1) Protein kinase assays. SAPK3 was assayed routinely by the phosphorylation of MBP. SAPK3 (0.5 or 1 μM) in 40 μl of 25 mM Tris/HCl pH 7.5, 0.1 mM EGTA, 0.1 mM sodium orthovanadate, 1 μM PKI and 0.33 mg/ml MBP was incubated for 3 min at 30° C. before initiating the reaction with 10 μl of 50 mM magnesium acetate-0.5 mM [γ-^32P]ATP. After 20 min at 30° C. 40 μl aliquots were withdrawn, spotted on to 1.5×1.5 cm squares of Whatman P81 phosphocellulose paper and immersed in 75 mM phosphoric acid. After washing and drying the papers (Alessi et al, 1995b), ^32P radioactivity incorporated into MBP was measured. One unit of activity was that amount of enzyme which incorporated 1 nmol of phosphate into MBP in 1 min.

Test [2] has as its target T2, human SAPK3 (Homo sapiens, UniProt P53778).
T2 construct: made in house; host or cells: E. coli BL21(DE3)
T2 sequence (P53778 1-367): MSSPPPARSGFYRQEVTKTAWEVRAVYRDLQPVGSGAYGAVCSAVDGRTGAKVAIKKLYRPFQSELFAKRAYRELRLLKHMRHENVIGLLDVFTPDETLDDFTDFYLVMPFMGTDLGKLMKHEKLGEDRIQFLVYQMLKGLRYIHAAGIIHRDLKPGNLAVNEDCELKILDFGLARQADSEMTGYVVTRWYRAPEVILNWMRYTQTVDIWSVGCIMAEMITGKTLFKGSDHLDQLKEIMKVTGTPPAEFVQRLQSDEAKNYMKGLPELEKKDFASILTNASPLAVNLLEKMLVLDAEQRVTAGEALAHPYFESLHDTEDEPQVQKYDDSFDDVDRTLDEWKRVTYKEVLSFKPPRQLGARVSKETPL
Briefly: Inhibition of SAPK3, MBP phosphorylation (FIG. 9). The test is classed as biochemical. On the procedure:
SAPK4, SAPK2a and SAPK2b were assayed routinely by the phosphorylation of MBP, exactly as described for SAPK3 in Example 4 and Cuenda et al, 1997. One unit of activity was that amount of enzyme which incorporated 1 nmol of phosphate into MBP in 1 min. SAPK4 activators were assayed by their ability to activate GST-SAPK4, as described for GST-SAPK3 in Example 4 and Cuenda et al, 1997. Control experiments were carried out in which GST-SAPK4 was omitted. One unit of SAPK4 activator was that amount which increased SAPK4 activity by I U/min. […] SAPK2a activators were assayed by their ability to activate the X. laevis homologue of SAPK2a (Meier et al, 1996). Activated SAPK2a itself was measured by the activation of GST-MAPKAP-K2(46400).
as §1

In test [3] the test system is MAPKAP-K2. The conditions noted are these: every mammalian cell so far examined; cited from earlier work.

The values that follow come from patent US6617117B1, “MAP kinases: polypeptides, polynucleotides and uses thereof” (Medical Research Council, priority 1996, dated 2003).

The structures appear in SMILES notation.

Take `C[S+]([O-])c1ccc(-c2nc(-c3ccncc3)c(-c3ccc(F)cc3)[nH]2)cc1` (stereo not shown) [SB 203580]: the “Inhibition of SAPK3” value is recorded as “not inhibited significantly” in test [1] and “not inhibited” in test [2] (SAPK3 activated by SKK3 in vitro). In addition, the “Inhibition of dephosphorylated form of SAPK3” value in test [2] (dephosphorylated form, <0.1% of the activity of the phosphorylated form, data not shown) was “failed to inhibit”. In addition, the “Suppression of stress- and cytokine-induced activation of MAPKAP-K2” value in test [3] is reported as 80-95%.
